What was measured:
[1] = test system: giant foxtail; experiment: Test A pre-/postemergence herbicide test; type: in vivo, Setaria faberii; details: for Plant response rating, Foxtail, Giant: 0 to 100 scale
Summary of the method: (§1)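 Seeds in loam–sand blend received preemergence directed soil spray; separately, plants 2–10 cm at one- to two-leaf stage received postemergence spray, both with test chemicals in non-phytotoxic solvent with surfactant. After ~10 days in greenhouse, injury rated visually against untreated controls, 0 (no effect) to 100 (complete control).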

[2] = test system: velvetleaf; experiment: Test A pre-/postemergence herbicide test; type: in vivo, Abutilon theophrasti; details: for Plant response rating, Velvetleaf: 0 to 100 scale
Summary of the method: as §1

[3] = test system: sedge, umbrella; experiment: Test B flooded paddy test; type: in vivo, Cyperus difformis; details: Flood, scale of 0 to 100 where 0 is no effect and 100 is complete control
Summary of the method: (§2)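 Treatment was made at the 2-leaf stage by dosing the standing floodwater, kept 3 cm above soil level for the whole test. Greenhouse exposure lasted 13 to 15 days. Response is a visual percent rating relative to controls, where a dash indicates no test result.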

[4] = test system: wheat; experiment: Test A pre-/postemergence herbicide test; type: in vivo, Triticum aestivum; details: for Plant response rating, Wheat: 0 to 100 scale
Summary of the method: as §1

[5] = test system: pigweed; experiment: Test A pre-/postemergence herbicide test; type: in vivo, Amaranthus retroflexus; details: for Plant response rating, Pigweed: 0 to 100 scale
Summary of the method: as §1

[6] = test system: morningglory; experiment: Test A pre-/postemergence herbicide test; type: in vivo, Ipomoea spp.; details: for Plant response rating, Morningglory: 0 to 100 scale
Summary of the method: as §1

[7] = test system: crabgrass, large; experiment: Test A pre-/postemergence herbicide test; type: in vivo, Digitaria sanguinalis; details: for Plant response rating, Crabgrass, Large: 0 to 100 scale
Summary of the method: as §1

[8] = test system: corn; experiment: Test A pre-/postemergence herbicide test; type: in vivo, Zea mays; details: for Plant response rating, Corn: 0 to 100 scale
Summary of the method: as §1

[9] = test system: rice; experiment: Test B flooded paddy test; type: in vivo, Oryza sativa; details: Flood, scale of 0 to 100 where 0 is no effect and 100 is complete control
Summary of the method: as §2

[10] = test system: barnyardgrass; experiment: Test A pre-/postemergence herbicide test; type: in vivo, Echinochloa crus-galli; details: for Plant response rating, Barnyardgrass: 0 to 100 scale
Summary of the method: as §1

[11] = test system: barnyardgrass; experiment: Test B flooded paddy test; type: in vivo, Echinochloa crus-galli; details: Flood, scale of 0 to 100 where 0 is no effect and 100 is complete control
Summary of the method: as §2

[12] = test system: ducksalad; experiment: Test B flooded paddy test; type: in vivo, Heteranthera limosa; details: Flood, scale of 0 to 100 where 0 is no effect and 100 is complete control
Summary of the method: as §2

[13] = 125 g ai/ha, visual rating, 0 no effect, 100 complete control, approximately 10 days, preemergence
[14] = Postemergence, 125 g ai/ha, 0 is no effect, 100 is complete control
[15] = preemergence, 500 g ai/ha, 0 is no effect and 100 is complete control

Compound	Plant response rating, Foxtail, Giant [1, 13]	Plant response rating, Foxtail, Giant [1, 14]	Foxtail, Giant plant response rating (0 to 100 scale, 0 is no effect, 100 is complete control) ([1]; Postemergence, 500 g ai/ha)	Plant response rating, Foxtail, Giant [1, 15]	Plant response rating, Velvetleaf [2, 13]	Plant response rating, Velvetleaf [2, 14]	Velvetleaf plant response rating (0 to 100 scale, 0 is no effect, 100 is complete control) ([2]; Postemergence, 500 g ai/ha)	Plant response rating, Velvetleaf [2, 15]	Plant response rating, Sedge, Umbrella ([3]; 250 g ai/ha)	Plant response rating, Sedge, Umbrella ([3]; 1000 g ai/ha)	Plant response rating, Wheat [4, 13]	Plant response rating, Wheat [4, 14]	Wheat plant response rating (0 to 100 scale, 0 is no effect, 100 is complete control) ([4]; Postemergence, 500 g ai/ha)	Plant response rating, Wheat [4, 15]	Plant response rating, Pigweed [5, 13]	Plant response rating, Pigweed [5, 14]	Pigweed plant response rating (0 to 100 scale, 0 is no effect, 100 is complete control) ([5]; Postemergence, 500 g ai/ha)	Plant response rating, Pigweed [5, 15]	Plant response rating, Morningglory [6, 13]	Plant response rating, Morningglory [6, 14]	also measured
COc1cc(C2CNC(=O)C2C(=O)Nc2ccccc2C(F)(F)F)ccc1F (racemic) [Compound 196]	80	20	70	90	0	0	0	0	0	0	0	0	0	0	0	0	0	0	0	0	Morningglory plant response rating (0 to 100 scale, 0 is no effect, 100 is complete control) ([6]; Postemergence, 500 g ai/ha): 0; Plant response rating, Morningglory [6, 15]: 0; Plant response rating, Crabgrass, Large [7, 13]: 90; Plant response rating, Crabgrass, Large [7, 14]: 70; Crabgrass, Large plant response rating (0 to 100 scale, 0 is no effect, 100 is complete control) ([7]; Postemergence, 500 g ai/ha): 80; Plant response rating, Crabgrass, Large [7, 15]: 100; Plant response rating, Corn [8, 13]: 0; Plant response rating, Corn [8, 14]: 0; Corn plant response rating (0 to 100 scale, 0 is no effect, 100 is complete control) ([8]; Postemergence, 500 g ai/ha): 0; Plant response rating, Corn [8, 15]: 0; Plant response rating, Rice ([9]; 250 g ai/ha): 0; Plant response rating, Rice ([9]; 1000 g ai/ha): 0; Plant response rating, Barnyardgrass [10, 13]: 0; Plant response rating, Barnyardgrass [10, 14]: 30; Barnyardgrass plant response rating (0 to 100 scale, 0 is no effect, 100 is complete control) ([10]; Postemergence, 500 g ai/ha): 80; Plant response rating, Barnyardgrass [10, 15]: 70; Plant response rating, Barnyardgrass ([11]; 250 g ai/ha): 0; Plant response rating, Barnyardgrass ([11]; 1000 g ai/ha): 20; Plant response rating, Ducksalad ([12]; 250 g ai/ha): 0; Plant response rating, Ducksalad ([12]; 1000 g ai/ha): 90
COc1ccc(C2CNC(=O)C2C(=O)Nc2cccc(F)c2F)cc1F (racemic) [Compound 198]	50	10	60	80	0	0	0	0	0	0	0	0	0	0	0	0	0	0	0	0	Morningglory plant response rating (0 to 100 scale, 0 is no effect, 100 is complete control) ([6]; Postemergence, 500 g ai/ha): 0; Plant response rating, Morningglory [6, 15]: 0; Plant response rating, Crabgrass, Large [7, 13]: 90; Plant response rating, Crabgrass, Large [7, 14]: 50; Crabgrass, Large plant response rating (0 to 100 scale, 0 is no effect, 100 is complete control) ([7]; Postemergence, 500 g ai/ha): 80; Plant response rating, Crabgrass, Large [7, 15]: 100; Plant response rating, Corn [8, 13]: 0; Plant response rating, Corn [8, 14]: 0; Corn plant response rating (0 to 100 scale, 0 is no effect, 100 is complete control) ([8]; Postemergence, 500 g ai/ha): 0; Plant response rating, Corn [8, 15]: 0; Plant response rating, Rice ([9]; 250 g ai/ha): 0; Plant response rating, Rice ([9]; 1000 g ai/ha): 15; Plant response rating, Barnyardgrass [10, 13]: 50; Plant response rating, Barnyardgrass [10, 14]: 50; Barnyardgrass plant response rating (0 to 100 scale, 0 is no effect, 100 is complete control) ([10]; Postemergence, 500 g ai/ha): 80; Plant response rating, Barnyardgrass [10, 15]: 90; Plant response rating, Barnyardgrass ([11]; 250 g ai/ha): 0; Plant response rating, Barnyardgrass ([11]; 1000 g ai/ha): 65; Plant response rating, Ducksalad ([12]; 250 g ai/ha): 70; Plant response rating, Ducksalad ([12]; 1000 g ai/ha): 95

— patent US10294202B2, “Pyrrolidinones as herbicides” (FMC Corporation, priority 2013, dated 2019)
